Measured values published in patent US5750754A, “Heterocyclic compounds” (Zeneca Limited, priority 1993, dated 1998).
Counter-ions that a name gives are not always drawn.

Assays:
[1] = biological target: T1, purified human platelet fibrinogen receptor (GPIIb/IIIa) (Homo sapiens, UniProt P05106+P08514); assay: Test (b): GPIIb/IIIa ELISA, inhibition of biotinylated fibrinogen binding; settings: purified human platelet GPIIb/IIIa, ELISA; for IC50: read-out: Test (b): pIC50 (-log(IC50)), 50% inhibition of biotinylated fibrinogen binding to GPIIb/IIIa (converted)
T1 construct: is isolated from human platelet lysates; from tissue
T1 sequence (P08514 32-887 limits assumed): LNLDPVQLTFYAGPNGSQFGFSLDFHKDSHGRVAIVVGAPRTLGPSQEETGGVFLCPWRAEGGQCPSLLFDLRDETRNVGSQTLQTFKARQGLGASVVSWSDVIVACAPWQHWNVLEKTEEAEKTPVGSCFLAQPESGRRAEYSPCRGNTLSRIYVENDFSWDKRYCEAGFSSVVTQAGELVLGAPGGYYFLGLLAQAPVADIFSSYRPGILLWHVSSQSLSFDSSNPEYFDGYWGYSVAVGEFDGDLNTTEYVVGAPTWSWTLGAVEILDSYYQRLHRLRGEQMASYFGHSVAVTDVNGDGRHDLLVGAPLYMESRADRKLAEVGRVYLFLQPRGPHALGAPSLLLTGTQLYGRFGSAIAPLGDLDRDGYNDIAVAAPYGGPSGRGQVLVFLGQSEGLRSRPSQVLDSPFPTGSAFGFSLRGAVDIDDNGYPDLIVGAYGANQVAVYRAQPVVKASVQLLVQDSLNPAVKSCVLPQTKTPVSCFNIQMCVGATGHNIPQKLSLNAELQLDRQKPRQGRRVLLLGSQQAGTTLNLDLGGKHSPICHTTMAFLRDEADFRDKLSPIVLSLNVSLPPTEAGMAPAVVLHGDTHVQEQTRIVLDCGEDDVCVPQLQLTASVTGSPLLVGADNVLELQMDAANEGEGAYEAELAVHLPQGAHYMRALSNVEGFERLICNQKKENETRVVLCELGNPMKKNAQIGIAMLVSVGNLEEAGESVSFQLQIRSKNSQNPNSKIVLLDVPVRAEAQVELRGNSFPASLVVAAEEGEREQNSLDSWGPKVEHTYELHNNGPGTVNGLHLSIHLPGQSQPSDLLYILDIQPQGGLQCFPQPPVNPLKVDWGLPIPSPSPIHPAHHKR
T1 sequence (P08514 891-1039 limits assumed): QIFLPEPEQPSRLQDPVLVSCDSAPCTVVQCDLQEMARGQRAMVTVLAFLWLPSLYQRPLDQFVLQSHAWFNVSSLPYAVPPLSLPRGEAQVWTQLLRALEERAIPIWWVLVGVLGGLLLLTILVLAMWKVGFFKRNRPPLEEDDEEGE
T1 sequence (P05106 27-788): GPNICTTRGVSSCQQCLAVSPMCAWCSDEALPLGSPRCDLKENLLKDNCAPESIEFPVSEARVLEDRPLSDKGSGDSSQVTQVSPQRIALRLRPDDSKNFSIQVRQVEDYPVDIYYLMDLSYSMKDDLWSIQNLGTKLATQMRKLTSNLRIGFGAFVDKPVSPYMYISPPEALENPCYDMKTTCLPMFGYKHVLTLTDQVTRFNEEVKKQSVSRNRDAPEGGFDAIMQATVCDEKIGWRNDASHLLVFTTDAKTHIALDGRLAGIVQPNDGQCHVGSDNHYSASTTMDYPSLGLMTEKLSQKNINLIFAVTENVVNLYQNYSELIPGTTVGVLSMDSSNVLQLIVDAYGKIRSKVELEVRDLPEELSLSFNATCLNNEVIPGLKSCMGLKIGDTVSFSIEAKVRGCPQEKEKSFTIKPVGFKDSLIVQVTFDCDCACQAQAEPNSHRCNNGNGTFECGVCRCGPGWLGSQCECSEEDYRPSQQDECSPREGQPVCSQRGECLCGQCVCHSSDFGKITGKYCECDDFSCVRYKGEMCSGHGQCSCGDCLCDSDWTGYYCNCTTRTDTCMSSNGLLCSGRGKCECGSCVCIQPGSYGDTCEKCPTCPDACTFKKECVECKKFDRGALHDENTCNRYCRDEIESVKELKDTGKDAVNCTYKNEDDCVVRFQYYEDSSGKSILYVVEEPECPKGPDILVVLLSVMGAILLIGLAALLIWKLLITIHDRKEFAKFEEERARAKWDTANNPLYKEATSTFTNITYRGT
Summary of the method: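 Inhibition of biotinylated fibrinogen ([…]) binding to immobilised human platelet fibrinogen receptor, purified by KYGRGDS peptide affinity chromatography, was measured after 2 h at 30 °C. Readout: streptavidin–biotin-HRP colour with TMB at […]; value expressed as pIC50.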

[2] = biological target: T2, human, citrated, platelet-rich plasma (Homo sapiens, UniProt P05106+P08514); assay: Test (a): inhibition of ADP stimulated platelet aggregation (Born); type: cell-based; settings: ADP induced aggregation of human platelet-rich plasma; for Kb: read-out: Test (a): pA2 value indicating potency of platelet aggregation inhibition (converted)
T2 construct: aggregating human, citrated, platelet-rich plasma; endogenous in cells; host or cells: human platelets in citrated platelet-rich plasma
T2 sequence (P08514 32-887 limits assumed): as the sequence (P08514 32-887 limits assumed) above
T2 sequence (P08514 891-1039 limits assumed): as the sequence (P08514 891-1039 limits assumed) above
T2 sequence (P05106 27-788): as the sequence (P05106 27-788) above
Summary of the method: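 pA2 calculated by comparing ADP EC50-type (50% response) values in presence and absence of compound, averaged across concentrations (generally 10-^5 M to 10-^10 M). Aggregation (Born) induced by ADP in citrated human platelet-rich plasma, giving dose-response curves.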

IC50 [1] | Kb [2] | Test (b): pIC50 (-log(IC50)), 50% inhibition of biotinylated fibrinogen binding to GPIIb/IIIa [1] | Test (a): pA2 value indicating potency of platelet aggregation inhibition [2] | Compound
> 100 µM | 31.6 µM |  |  | COCCNC(=O)COC1CCN(C(=O)CN2CCN(c3ccncc3)CC2)CC1 [Example 107, N-2-Methoxyethyl 1-[2-[4-(4-pyridyl)piperazin-1-yl]acetyl]-piperidin-4-yloxyacetamide]
2.51 µM | > 100 µM |  |  | COC(=O)C(Cc1ccc(OCc2cnccc2N(C)C)cc1)NC(=O)OCc1ccccc1 (stereo not shown) [Example 114, Methyl3-(4-dimethylamninopyrid-3-yl)methoxyphenoxyl-2-benzyloxycarbonylaminopropanoate]
3.98 µM | 12.6 µM |  |  | COC(=O)COc1ccc(C(=O)CN2CCN(c3ccncc3)CC2)c2ccccc12 [Example 117]
> 100 µM | 31.6 µM |  |  | COC(=O)COc1cccc(C(=O)CN2CCN(c3ccncc3)CC2)c1 [Example 119]
0.1 µM | 1 µM |  |  | O=C(O)COc1c(Cl)cc(C(=O)CN2CCN(c3ccncc3)CC2)cc1Cl [Example 123, 4-[2-[4-(4-Pyridyl)piperazin-1-yl]acetyl]-2,6-dichlorophenoxyacetic acid, dihydrochloride]
0.316 µM | 0.0126 µM |  |  | O=C(O)COc1ccc(C(=O)CN2CCN(c3ccncc3)CC2)c(OCC(=O)O)c1 [Example 129, 2,2'-[4-[2-[4-(4-Pyridyl)piperazin-1-yl]acetyl]phenylene-1,3-dioxy]diaceticacid, dihydrochloride]
3.98 µM | > 100 µM |  |  | CC(C)(C)c1cc(C(=O)CN2CCN(c3ccncc3)CC2)cc(C(C)(C)C)c1OCC(=O)O [Example 130, 4-[2-[4-(4-Pyridyl)piperazin-1-yl]acetyl]-2,6-di-tert-butylphenoxyacetic acid]
31.6 µM | 25.1 µM |  |  | CCOC(=O)c1ccc(C(=O)CN2CCN(c3ccncc3)CC2)cc1 [Example 131, Ethyl 4-[2-[4-(4-pyridyl)piperazin-1-yl]acetyl]benzoate]
31.6 µM | 63.1 µM |  |  | O=C(O)c1ccc(C(=O)CN2CCN(c3ccncc3)CC2)cc1 [Example 132, Sodium 4-[2-[4-(4-pyridyl)piperazin-1-yl]acetyl]benzoate]
2.51 µM | 0.126 µM |  |  | CCOC(=O)COc1ccc(C(=O)CN2CCN(c3ccncc3)CC2)cc1 [Example 136, Ethyl-4-[2-[4-(4-pyridyl)piperazin-1-yl]acetyl]phenoxyacetate]
3.16 µM | 0.0631 µM |  |  | CC(C)OC(=O)COc1ccc(C(=O)CN2CCN(c3ccncc3)CC2)cc1 [Example 137, iso-Propyl 4-[2-[4-(4-pyridyl)piperazin-1-yl]acetyl]phenoxyacetate]
0.501 µM | 1.58 µM |  |  | COC(=O)C(Oc1ccc(C(=O)CN2CCN(c3ccncc3)CC2)cc1)C(=O)OC [Example 140, Dimethyl 4-[2-[4-(4-pyridyl)piperazin-1-yl]acetyl]phenoxymalonate]
5.01 µM | 5.01 µM |  |  | NC(=O)COc1ccc(C(=O)CN2CCN(c3ccncc3)CC2)cc1 [Example 142, 4-[2-[4-(4-Pyridyl)piperazin-1-yl]acetyl]phenoxyacetamide]

The remaining lines, values behind:

Compound | IC50 [1] | Kb [2] | Test (b): pIC50 (-log(IC50)), 50% inhibition of biotinylated fibrinogen binding to GPIIb/IIIa [1] | Test (a): pA2 value indicating potency of platelet aggregation inhibition [2]
CC(C)(C)OC(=O)COC1CCCN(C(=O)CN2CCN(c3ccncc3)CC2)C1 (stereo not shown) [Example 103, Tert-butyl 1-[2-[4-(4-pyridyl)piperazin-1in-1-yl]acetyl]piperidin-3-yloxyacetate] | 7.94 µM | 31.6 µM |  | 
O=C(O)COC1CCCN(C(=O)CN2CCN(c3ccncc3)CC2)C1 (stereo not shown) [Example 104, 1[2-[4-(4-Pyridyl)piperazin-1yl]acetyl]piperidin-3-yloxyacetic acid] | 20 µM | > 100 µM |  | 
CC(C)(C)OC(=O)COC1CCN(C(=O)CN2CCN(c3ccncc3)CC2)CC1 [Example 106] | 39.8 µM | 15.8 µM |  | 
O=C(O)COc1ccc(C(=O)CN2CCC(=Cc3cnccc3N3CCCC3)C2)cc1 [Example 108, 4-[2-[3-[4-(1-Pyrrolidinyl)pyridin-3yl]methylidene]pyrrolidin-1-yl]-acetylphenoxyacetic acid] | 1.26 µM | 0.501 µM |  | 
O=C(O)CCC1CCN(C(=O)CN2CCN(c3ccncc3)CC2)CC1 [Example 109, 3-[1-[2-[4-(4-Pyridyl)piperazin-1-yl]acetyl]piperidin-4-yl]propanoic acid] | 0.631 µM | 0.316 µM |  | 
O=C(O)CCC(CC1CCN(C(=O)CN2CCN(c3ccncc3)CC2)CC1)C(=O)O (stereo not shown) [Example 112] |  |  | 5.5 | 5.2
CN(C)c1ccncc1COc1ccc(OCCCC(=O)O)cc1 [Example 113, 4-[4-[(4-Dimethylaminopyrid-3-yl)methoxy]phenoxy]butanoic acid] | 25.1 µM | > 100 µM |  | 
CCCCS(=O)(=O)NCC1CCN(C(=O)CN2CCN(c3ccncc3)CC2)CC1 [Example 115, N-[1-[2-[4-(4-Pyridiyl)piperazin-1-yl]acetyl]piperidin-4-ylmethyl]-1-butanesulphonamide] | > 100 µM | 3.98 µM |  | 
COC(=O)COc1c(Cl)cc(C(=O)CN2CCN(c3ccncc3)CC2)cc1Cl [Example 116] | 2.51 µM | 2 µM |  | 
COC(=O)COc1ccc(C(=O)CN2CCN(c3ccncc3)CC2)c(C)c1 [Example 118, Methyl 4-[2-[4-(4-pyridyl)piperazin-1-yl]acetyl]-3-methylphenoxyacetate] | 0.398 µM | 0.2 µM |  | 
O=C(O)COc1ccc(C(=O)CN2CCN(c3ccncc3)CC2)c2ccccc12 [Example 124, 4-[2-[4-(4-Pyridyl)piperazin-1-yl]acetyl]naphthoxyacetic acid, dihydrochloride] | 0.251 µM | 0.794 µM |  | 
Cc1cc(OCC(=O)O)ccc1C(=O)CN1CCN(c2ccncc2)CC1 [Example 125, 4-[2-[4-(4-Pyridyl)piperazin-1-yl]acetyl]-3-methylphenoxyacetic acid, dihydrochloride] | 0.0158 µM | 0.158 µM |  | 
O=C(O)COc1cccc(C(=O)CN2CCN(c3ccncc3)CC2)c1 [Example 126, 3-[2-[4-(4-Pyridyl)piperazin-1-yl]acetyl]phenoxyacetic acid, dihydrochloride] | 3.16 µM | 15.8 µM |  | 
Cc1cc(C(=O)CN2CCN(c3ccncc3)CC2)ccc1OCC(=O)O [Example 127, 4-[2-[4-(4-Pyridyl)piperazin-1-yl]acetyl]-2-methyl-phenoxyacetic acid, dihydrochloride] | 0.2 µM | 1.58 µM |  | 
COc1cc(OCC(=O)O)ccc1C(=O)CN1CCN(c2ccncc2)CC1 [Example 128, 4-[2-[4-(4-Pyridyl)piperazin-1-yl]acetyl]-3-methoxy-phenoxyacetic acid, dihydrochloride] | 0.501 µM | 0.158 µM |  | 
COC(=O)COc1cc(OCC(=O)OC)cc(C(=O)CN2CCN(c3ccncc3)CC2)c1 [Example 133, Dimethyl 2,2'-[5-[2-[4-(4-pyridyl)piperazin-1-yl]acetyl]phenylene-1,3-dioxy]diacetate] | 31.6 µM | 2 µM |  | 
O=C(O)COc1cc(OCC(=O)O)cc(C(=O)CN2CCN(c3ccncc3)CC2)c1 [Example 134, Disodium 2,2'-[5-[2-[4-(4-pyridyl)piperazin-1-yl]acetyl]phenylene-1,3-dioxy]diacetate] | 25.1 µM | 15.8 µM |  | 
CC(C)(Oc1ccc(C(=O)CN2CCN(c3ccncc3)CC2)cc1)C(=O)O [Example 135, 2-[4-[2-[4-(4-Pyridyl)piperazin-1-yl]acetyl]phenoxy]isobutyric acid, dihydrobromide] | > 100 µM | 31.6 µM |  | 
CC(C)(C)OC(=O)COc1ccc(C(=O)CN2CCN(c3ccncc3)CC2)cc1 [Example 138, tert-Butyl 4-[2-[4-(4-pyridyl)piperazin-1-yl]acetyl]-phenoxyacetate] | 12.6 µM | 10 µM |  | 
CC(C)(C)COC(=O)COc1ccc(C(=O)CN2CCN(c3ccncc3)CC2)cc1 [Example 139, Neopentyl 4-[2-[4-(4-pyridyl)piperazin-1-yl]acetyl]phenoxyacetate] | 3.98 µM | 0.251 µM |  | 
O=C(CN1CCN(c2ccncc2)CC1)c1ccc(OCc2nnn[nH]2)cc1 [Example 141, 5-[4-[2-[4-(4-Pyridyl)piperazin-1-yl]acetyl]phenoxymethyl]tetrazole] | 31.6 µM | 31.6 µM |  | 
CNC(=O)COc1ccc(C(=O)CN2CCN(c3ccncc3)CC2)cc1 [Example 143, 2-[4-[2-[4-(4-Pyridyl)piperazin-1-yl]acetyl]phenoxy]-N-methylacetamide] | 31.6 µM | 10 µM |  | 
COCCNC(=O)COc1ccc(C(=O)CN2CCN(c3ccncc3)CC2)cc1 [Example 144, 2-[4-[2-[4-(4-Pyridyl)piperazin-1-yl]acetyl]phenoxy]-N-(2-methoxymethyl)-acetamide] | 5.01 µM | 5.01 µM |  | 
O=C(COc1ccc(C(=O)CN2CCN(c3ccncc3)CC2)cc1)NCc1ccccc1 [Example 145, 2-[4-[2-[4-(4-Pyridyl)piperazin-1-yl]acetyl]phenoxy]-N-(phenylmethyl)-acetamide] | 5.01 µM | 3.16 µM |  | 
COC(=O)CNC(=O)COc1ccc(C(=O)CN2CCN(c3ccncc3)CC2)cc1 [Example 146, Methyl N-[4-[2-[4-(4-pyridyl)piperazin-1-yl]acetyl]phenoxyacetyl]glycinate] | 6.31 µM | 7.94 µM |  | 
